The values below are quoted from earlier work in patent publication US20140322356A1, “CTC BIOMARKER ASSAY TO COMBAT BREAST CANCER BRAIN METASTASIS” (Baylor College of Medicine, priority 2011, published 2014).

Data set [1] concerns MDA-MB-435 carcinoma cells. The settings on record: MDA-MB-435 cells selected for metastatic growth in the brain.
The target of a further data set is T1, heparanase (HPSE) (Homo sapiens, UniProt Q9Y251).
T1 sequence (Q9Y251 36-543): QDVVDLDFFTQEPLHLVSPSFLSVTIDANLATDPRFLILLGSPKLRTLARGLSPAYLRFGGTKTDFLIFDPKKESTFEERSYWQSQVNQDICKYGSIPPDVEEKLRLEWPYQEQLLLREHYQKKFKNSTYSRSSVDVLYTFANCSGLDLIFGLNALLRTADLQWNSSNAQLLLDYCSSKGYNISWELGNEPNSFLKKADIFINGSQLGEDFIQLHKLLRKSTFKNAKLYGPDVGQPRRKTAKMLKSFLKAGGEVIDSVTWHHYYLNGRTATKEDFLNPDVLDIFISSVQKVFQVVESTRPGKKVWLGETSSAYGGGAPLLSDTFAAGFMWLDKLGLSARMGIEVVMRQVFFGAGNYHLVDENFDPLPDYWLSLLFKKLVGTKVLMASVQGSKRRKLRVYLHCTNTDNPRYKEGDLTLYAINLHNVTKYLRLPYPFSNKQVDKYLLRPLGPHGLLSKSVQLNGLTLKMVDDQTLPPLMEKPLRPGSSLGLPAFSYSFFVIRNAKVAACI
The conditions noted are these: statement from literature, no value given.

On to `C[C@H](NC(=O)Cc1cc(F)cc(F)c1)C(=O)N[C@H](C(=O)OC(C)(C)C)c1ccccc1` [DAPT], for which the “tumor cell migration and invasion in vitro” value in data set [1] was “inhibited”.
With Heparin, the inhibition of heparanase result on heparanase (HPSE) is given as “inhibitor of HPSE”.
